# Reference: US8828435B2, “Buccal delivery system” (Lingual Consegna Pty Ltd, priority 2006, dated 2014)
# Read-outs that look alike come from different tables or passages of the source.
# Legend:
# [1] = Open-label clinical trial: plasma hormone pharmacokinetics after buccal LINGUET tablet, single dose and two weeks twice daily; assay type: in vivo, post-menopausal women; conditions: for absorption from the LINGUET tablet: achieved concentrations found in normal young menstruating women
# Description: The trial was conducted with approval of an ethics committee within the hospital.
# The excipients in the LINGUET tablets consisted of silica gel, magnesium stearate, acacia, stevia and polyethylene glycol with a wildberry flavour. The LINGUET tablets employed in this trial were formulated in a single batch for the study using the process according to the invention as described in example 2 above. The LINGUET tablets were provided by Richard Stenlake Compounding Pharmacist (Bondi Junction, Australia).
# The study was an open-label investigation in six post-menopausal women. Before entry into the trial, subjects gave informed consent, and underwent medical and biochemical screening. Subjects were in general good health, and at least one year post-menopausal.
# Subjects discontinued their prescribed HRT therapy as well as any herbal or alternative medicines not less than three days prior to the first study day. Subjects presented to the Clinical Trials Centre on the morning of each study day after an overnight fast. An indwelling cannula was inserted into a forearm vein and a baseline blood specimen collected.
# On the first day, a half-LINGUET tablet was placed in the buccal cavity (between the cheek and the gum) and allowed to dissolve. Subjects were instructed not to swallow the formulation. […] Subjects rinsed their mouths with water at 45 min. Blood samples were collected via the cannula at timed intervals over 24 h. Subjects were discharged, but continued to take half a LINGUET tablet, twice daily, for the following two weeks. Subjects then re-presented to the Clinical Trials Centre where the morning dose was taken and further blood samples were collected at timed intervals over the dosage interval of 12 h.
# Blood samples were schedule for collection following the single dose at the following times:
# Pre-dose (0), 0.25, 0.5, 0.75, 1.0, 1.5, 2.0, 3.0, 4.0, 6.0, 8.0, 12.0, 16.0, […] and 24.0 h following the single dose, and at pre-dose (0), 0.25. 0.5, 0.75, 1.0, 2.0, 2.5, 3.0, 4.0, 6.0, 8.0, 10.0 and 12 h after the two-week dosing interval (steady-state). Actual times were recorded, and these were used for the pharmacokinetic calculations.
# Plasma concentrations of hormones were determined using routine validated, radioimmunoassay techniques in the hospital laboratory (Sydpath, St Vincent's Hospital, Sydney). The laboratory is an accredited pathology provider that participates in national quality assurance programmes for hormonal analysis.
# DHEA was monitored as the sulphate metabolite (DHEAS), not as the administered hormone.
# [2] = background statement, cited from earlier work; for absorbed fraction of the ingested dose: oral
# [3] = Hormone concentrations in saliva after buccal LINGUET tablet (radioimmunoassay); assay type: in vivo, post-menopausal women; conditions: elevation maintained over the following 8-12 hours
# Description: Saliva was collected according to the standardized directions provided by the laboratory, Australian Reference Laboratories (Melbourne), and stored frozen (−20° C.) prior to shipping for hormonal analysis. In brief, subjects rinsed their mouths thoroughly with water and waited 5-10 min before swallowing any saliva in the mouth. Subjects then expressed saliva directly into the collection tubes.
# Saliva samples were obtained for single dose estimation at the following times: pre-dose (0), and 1.0, 4.0, 8.0, 12.0, 16.0 and 24 h after dosing. For steady-state analysis, saliva was collected at pre-dose (0), and 1.0, 4.0, 8.0 and 12.0 h after LINGUET tablet administration.
# Hormone concentrations in saliva were conducted by the […] (Melbourne) using validated, commercial radioimmunoassays. This laboratory is similarly an accredited pathology provider.
# [4] = plasma, single and multiple dosing
smiles,measurement,setting,value
"C[C@]12CC[C@H](O)CC1=CC[C@@H]1[C@@H]2CC[C@]2(C)C(=O)CC[C@@H]12 [DHEA, dehydroepiandrosterone]",absorption from the LINGUET tablet,[1]; plasma,readily absorbed
same,change of blood concentrations of DHEAS,"[1]; single dose one-half LINGUET tablet (5 mg DHEA), over 5-10 hours",doubling
same,oral bioavailability,[2],over 90%
"C[C@]12CC[C@H](OS(=O)(=O)O)CC1=CC[C@@H]1[C@@H]2CC[C@]2(C)C(=O)CC[C@@H]12 [DHEA-sulphate, dehydroepiandrosterone-sulphate]",Tmax Day 1,"[1]; plasma, after the first dose (half LINGUET tablet, buccal)",6.0 h
same,Cmax,"[1]; plasma, after the first dose (half LINGUET tablet, buccal), read-out: Cmax Day 1",2.2 ± 1.1 nM
same,Trough concentration at steady-state,"[1]; plasma, after two weeks of twice daily half-tablet, six women, mean ± spread",2.56 ± 1.99 nmol/L
same,Tmax Steady-state,"[1]; plasma, after two weeks of twice daily treatment",1.5 h
same,Cmax,"[1]; plasma, after two weeks of twice daily treatment, read-out: Cmax Steady-state",4 ± 2 nM
"C[C@]12CC[C@@H]3c4ccc(O)cc4CC[C@H]3[C@@H]1CC[C@@H]2O [Oestradiol, 17-β-oestradiol]",concentrations in saliva compared with blood following use of the LINGUET tablet,[3],elevated many times higher than in blood
"CC(=O)[C@H]1CC[C@H]2[C@@H]3CCC4=CC(=O)CC[C@]4(C)[C@H]3CC[C@]12C [Progesterone, progesterone]",Cmax,"[1]; female, human, in vivo, Cmax Day 1",22.9 ± 6.9 nM
same,Cmax,"[1]; female, human, in vivo, Cmax Steady-state",26.1 ± 7.6 nM
same,Tmax,"[1]; female, human, in vivo, Tmax Day 1",1.5 h
same,Tmax,"[1]; female, human, in vivo, Tmax Steady-state",1 h
same,plasma concentration at steady-state versus physiological level,[1]; in vivo,sustained at concentrations usually associated with physiological and biological activity in young normal women
same,time until concentrations decreased to below those generally associated with biological activity in the endometrium,[1]; in vivo,within five hours
same,concentrations in saliva compared with blood following use of the LINGUET tablet,[3],elevated many times higher than in blood
"C[C@]12CC[C@H]3[C@@H](CCC4=CC(=O)CC[C@@]43C)[C@@H]1CC[C@@H]2O [Testosterone, testosterone]",Cmax,"[1]; female, human, in vivo, plasma, after the first dose (half LINGUET tablet, buccal), read-out: Cmax Day 1",31.6 ± 10.9 nM
same,Tmax,"[1]; female, human, in vivo, plasma, after the first dose (half LINGUET tablet, buccal), read-out: Tmax Day 1",0.6 h
same,concentration at 2 weeks,"[1]; female, human, in vivo, plasma, after two weeks of twice daily half-tablet, six women, mean ± spread, read-out: Trough concentration at steady-state",0.67 ± 0.28 nM
same,duration of markedly increased plasma concentrations,[1]; [4],up to 4 hours
same,return to pre-treatment values,[1]; [4],≤ 8 h
same,time of peak concentrations (mean),[1]; [4],0.6 h
same,absorption from the LINGUET tablet,[1]; plasma,readily absorbed
NCCCC(O)(P(=O)(O)O)P(=O)(O)O [alendronate],absorbed fraction of the ingested dose,[2],about 1%
O=P(O)(O)C(O)(Cc1cccnc1)P(=O)(O)O [risedronate],absorbed fraction of the ingested dose,[2],about 1%
